Experimental findings from patent US20120121540A1 (priority 2007, published 2012) are described below.

This assay in a line: HCV replicon assay (luciferase reporter, ET cell line). The following applies: Hepatitis C virus, HCV replicon luciferase activity in ET cells. In kind it is cell-based. The method, boiled down:
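EC50 and, via WST-1 cytotoxicity, TC50 were fitted with a Hill-coefficient equation to % inhibition across 10 two-fold dilutions. Compounds at 0.1 nM-[…] with 0.5% DMSO were applied 24 h post-seeding to replicon-bearing ET cells (luc-ubi-neo/NS3-5B, adaptive mutations). Firefly luciferase signal was measured after 48-72 h.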
On the technique in general: A replicon is a self-replicating genome or part of one, used to study replication in cells.
One may read the inhibition as how much of the control response was suppressed. Low readings indicate a weak effect, high ones a strong effect. As for `O=C(c1nc2c(C(F)(F)F)cc(-c3ccoc3)cn2c1Cl)N1CCC(c2cccs2)CC1` [Compound 598, [3-chloro-6-(furan-3-yl)-8-(trifluoromethyl)imidazo[1,2-a]pyridin-2-yl][4-(thiophen-2-yl)piperidin-1-yl]methanone], the inhibition at 10 µM was 95.9%.
With `O=C(c1nc2c(C(F)(F)F)cc(-c3ccoc3)cn2c1Cl)N1CCC(Nc2ccccc2)C1` (stereo not shown) [Compound 599, (3-Chloro-6-furan-3-yl-8-trifluoromethyl-imidazo[1,2-a]pyridin-2-yl)-(3-phenylamino-pyrrolidin-1-yl)-methanone] the figure was 91.1%.
The same measure for `CC(=O)N(c1ccccc1)C1CCN(C(=O)c2nc3c(C(F)(F)F)cc(-c4ccoc4)cn3c2Cl)C1` (stereo not shown) [Compound 600, N-[1-(3-Chloro-6-furan-3-yl-8-trifluoromethyl-imidazo[1,2-a]pyridine-2-carbonyl)-pyrrolidin-3-yl]-N-phenyl-acetamide]: 76%; for `N#CC1(c2ccccc2)CCN(C(=O)c2nc3c(C(F)(F)F)cc(-c4ccoc4)cn3c2Cl)CC1` [Compound 601, 1-(3-Chloro-6-furan-3-yl-8-trifluoromethyl-imidazo[1,2-a]pyridine-2-carbonyl)-4-phenyl-piperidine-4-carbonitrile]: 98.3%; for `O=C(NC(c1ccccc1)c1cccs1)c1nc2c(C(F)(F)F)cc(-c3ccoc3)cn2c1Cl` (stereo not shown) [Compound 602, 3-Chloro-6-furan-3-yl-8-trifluoromethyl-imidazo[1,2-a]pyridine-2-carboxylic Acid (phenyl-thiophen-2-yl-methyl)-amide]: 90.5%.
In turn, `O=C(Cc1nc2c(C(F)(F)F)cc(-c3ccoc3)cn2c1Cl)NCc1cccs1` [Compound 603, 2-[3-Chloro-6-(furan-3-yl)-8-(trifluoromethyl)imidazo[1,2-a]pyridin-2-yl]-N-(thiophen-2-ylmethyl)acetamide] displayed an inhibition at 10 µM of 65.8%.
With `O=C(Cc1nc2c(C(F)(F)F)cc(-c3ccoc3)cn2c1Cl)N1CCC(c2cccc(F)c2)C1` (stereo not shown) [Compound 604, 2-[3-chloro-6-(furan-3-yl)-8-(trifluoromethyl)imidazo [1,2-a]pyridin-2-yl]-1-[3-(3-fluorophenyl)pyrrolidin-1-yl]ethanone] the figure was 74.1%; with `O=C(c1nc2c(C(F)(F)F)cc(-c3ccoc3)cn2c1Cl)N1CCC(n2cnc3ccccc32)CC1` [Compound 605, (4-Benzoimidazol-1-yl-piperidin-1-yl)-(3-chloro-6-furan-3-yl-8-trifluoromethyl-imidazo[1,2-a]pyridin-2-yl)-methanone], 3.1%; with `O=C(c1nc2c(C(F)(F)F)cc(-c3cn[nH]c3)cn2c1Cl)N1CCC(c2ccccc2F)CC1` [Compound 606, [3-Chloro-6-(1H-pyrazol-4-yl)-8-trifluoromethyl-imidaz [1,2-a]pyridin-2-yl]-[4-(2-fluoro-phenyl)-piperidin-1-yl]-methanone], 87.9%.
With `N#Cc1ccccc1C1CCN(C(=O)c2nc3c(C(F)(F)F)cc(-c4cn[nH]c4)cn3c2Cl)CC1` [Compound 607, 2-{1-[3-Chloro-6-(1H-pyrazol-4-yl)-8-trifluoromethyl-imidazo[1,2-a]pyridine-2-carbonyl]-piperidin-4-yl}-benzonitrile] the figure was 92.2%; with `O=C(c1nc2c(C(F)(F)F)cc(-c3cn[nH]c3)cn2c1Br)N1CC=C(c2ccc(F)cc2)CC1` [Compound 608, [3-Bromo-6-(1H-pyrazol-4-yl)-8-trifluoromethyl-imidazo[1,2-a]pyridin-2-yl]-[4-(4-fluoro-phenyl)-3,6-dihydro-2H-pyridin-1-yl]-methanone], 62.7%; with `O=C(c1nc2c(C(F)(F)F)cc(-c3cn[nH]c3)cn2c1Br)N1CC=C(c2cscn2)CC1` [Compound 609, [3-Bromo-6-(1H-pyrazol-4-yl)-8-trifluoromethyl-imidazo[1,2-a]pyridin-2-yl]-(4-thiazol-4-yl-3,6-dihydro-2H-pyridin-1-yl)-methanone], 94.1%.
With `O=C(c1nc2c(C(F)(F)F)cc(-c3cn[nH]c3)cn2c1Br)N1CCN(c2nccs2)CC1` [Compound 610, [3-Bromo-6-(1H-pyrazol-4-yl)-8-trifluoromethyl-imidazo[1,2-a]pyridin-2-yl]-(4-thiazol-2-yl-piperazin-1-yl)-methanone] the figure was 68.7%; with `O=C(c1nc2c(C(F)(F)F)cc(-c3cn[nH]c3)cn2c1Br)N1CCC(c2nccs2)CC1` [Compound 611, [3-Bromo-6-(1H-pyrazol-4-yl)-8-trifluoromethyl-imidazo[1,2-a]pyridin-2-yl]-(4-thiazol-2-yl-piperidin-1-yl)-methanone], 92.4%.
As to `O=C(c1cn2cc(-c3cn[nH]c3)cc(C(F)(F)F)c2n1)N1CC=C(c2nccs2)CC1` [Compound 612, [6-(1H-pyrazol-4-yl)-8-(trifluoromethyl)imidazo[1,2-a]pyridin-2-yl][4-(1,3-thiazol-2-yl)-3,6-dihydropyridin-1(2H)-yl]methanone], the inhibition at 10 µM amounted to 59.3%.
The same measure for `O=C(c1nc2c(C(F)(F)F)cc(-c3ccoc3)cn2c1Cl)N1CC=C(c2cccs2)CC1` [Compound 613, (3-Chloro-6-furan-3-yl-8-trifluoromethyl-imidazo[1,2-a]pyridin-2-yl)-(4-thiophen-2-yl-3,6-dihydro-2H-pyridin-1-yl)-methanone]: 99.4%; for `N#Cc1c(F)cccc1C1=CCN(C(=O)c2nc3c(C(F)(F)F)cc(-c4ccoc4)cn3c2Cl)CC1` [Compound 614, 2-[1-(3-Chloro-6-furan-3-yl-8-trifluoromethyl-imidazo[1,2-a]pyridine-2-carbonyl)-1,2,3,6-tetrahydro-pyridin-4-yl]-6-fluoro-benzonitrile]: 89.7%.
For `COc1ccc(F)c(C2=CCN(C(=O)c3nc4c(C(F)(F)F)cc(-c5ccoc5)cn4c3Cl)CC2)c1F` [Compound 616, (3-Chloro-6-furan-3-yl-8-trifluoromethyl-imidazo[1,2-a]pyridin-2-yl)-[4-(2,6-difluoro-3-methoxy-phenyl)-3,6-dihydro-2H-pyridin-1-yl]-methanone], the inhibition at 10 µM came to 64.9%.
The same measure for `O=C(c1nc2c(C(F)(F)F)cc(-c3ccoc3)cn2c1Cl)N1CC=C(c2ccc(F)nc2F)CC1` [Compound 617, (3-Chloro-6-furan-3-yl-8-trifluoromethyl-imidazo[1,2-a]pyridin-2-yl)-(2,6-difluoro-3′,6′-dihydro-2′H-[3,4′]bipyridinyl-1′-yl)-methanone]: 95%; for `O=C(c1nc2c(C(F)(F)F)cc(-c3ccoc3)cn2c1Cl)N1CC=C(c2cncnc2)CC1` [Compound 618, [3-chloro-6-(furan-3-yl)-8-(trifluoromethyl)imidazo[1,2-a]pyridin-2-yl][4-(pyrimidin-5-yl)-3,6-dihydropyridin-1(2H)-yl]methanone]: 95.9%; for `O=C(c1nc2c(C(F)(F)F)cc(-c3ccoc3)cn2c1Cl)N1CC=C(C2=CN=CNC2)CC1` [Compound 619, [3-chloro-6-(furan-3-yl)-8-(trifluoromethyl)imidazo[1,2-a]pyridin-2-yl][4-(1,6-dihydropyrimidin-5-yl)-3,6-dihydropyridin-1(2H)-yl]methanone]: 44%.
The compound `Cn1cc(-c2cc(C(F)(F)F)c3nc(C(=O)N4CCC(c5cccc(F)c5)C4)c(Cl)n3c2)cn1` (stereo not shown) [Compound 624, [3-Chloro-6-(1-methyl-1H-pyrazol-4-yl)-8-trifluoromethyl-imidazo[1,2-a]pyridin-2-yl]-[3-(3-fluoro-phenyl)-pyrrolidin-1-yl]-methanone] yielded an inhibition at 10 µM of 63.9%.
With `Cc1n[nH]cc1-c1cc(C(F)(F)F)c2nc(C(=O)N3CCC(c4cccc(F)c4)C3)c(Cl)n2c1` (stereo not shown) [Compound 625, [3-Chloro-6-(3-methyl-1H-pyrazol-4-yl)-8-trifluoromethyl-imidazo[1,2-a]pyridin-2-yl]-[3-(3-fluoro-phenyl)-pyrrolidin-1-yl]-methanone] the figure was 59.8%; with `O=C(c1nc2c(C(F)(F)F)cc(C3=CCNCC3)cn2c1Cl)N1CCC(c2cccc(F)c2)C1` (stereo not shown) [Compound 629, [3-chloro-6-(1,2,3,6-tetrahydropyridin-4-yl)-8-(trifluoromethyl)imidazo[1,2-a]pyridin-2-yl][3-(3-fluorophenyl)pyrrolidin-1-yl]methanone], 73.3%; with `O=C(c1nc2c(C(F)(F)F)cc(-c3coc(Cl)c3)cn2c1Cl)N1CCC(c2cccc(F)c2)C1` (stereo not shown) [Compound 633, [3-Chloro-6-(5-chloro-furan-3-yl)-8-trifluoromethyl-imidazo[1,2-a]pyridin-2-yl]-[3-(3-fluoro-phenyl)-pyrrolidin-1-yl]-methanone], 90.2%.
The same measure for `O=C(c1nc2c(C(F)(F)F)cc(-c3ccoc3)cn2c1Cl)N1C2C=C(c3cscn3)CC1CC2` (stereo not shown) [Compound 634, [3-chloro-6-(furan-3-yl)-8-(trifluoromethyl)imidazo[1,2-a]pyridin-2-yl][3-(1,3-thiazol-4-yl)-8-azabicyclo[3.2.1]oct-2-en-8-yl]methanone]: 86.4%; for `N#Cc1c(F)ccc(F)c1C1=CCN(C(=O)c2nc3c(C(F)(F)F)cc(-c4ccoc4)cn3c2Cl)CC1` [Compound 635, 2-(1-{[3-chloro-6-(furan-3-yl)-8-(trifluoromethyl)imidazo[1,2-a]pyridin-2-yl]carbonyl}-1,2,3,6-tetrahydropyridin-4-yl)-3,6-difluorobenzonitrile]: 95.9%.
The same measure for `CC(=O)NCc1c(-c2ccoc2)cc(C(F)(F)F)c2nc(C(=O)N3CCC(c4cccc(F)c4)C3)cn12` (stereo not shown) [Compound 637, N-{[2-{[3-(3-fluorophenyl)pyrrolidin-1-yl]carbonyl}-6-(furan-3-yl)-8-(trifluoromethyl)imidazo[1,2-a]pyridin-5-yl]methyl}acetamide]: 60.8%.
